Columns and labels:
Assay in all cases: Kinase panel enzymatic inhibition assay (Nanosyn)
Assay type in all cases: biochemical
ITK = molecular target: T1, ITK (Homo sapiens, UniProt Q08881); details: ATP at Km; 30-minute pre-incubation; read-out: kinase inhibition in terms of IC50, ITK
T1 construct: Nanosyn (contract laboratory that ran the panel)
T1 sequence (Q08881 1-620): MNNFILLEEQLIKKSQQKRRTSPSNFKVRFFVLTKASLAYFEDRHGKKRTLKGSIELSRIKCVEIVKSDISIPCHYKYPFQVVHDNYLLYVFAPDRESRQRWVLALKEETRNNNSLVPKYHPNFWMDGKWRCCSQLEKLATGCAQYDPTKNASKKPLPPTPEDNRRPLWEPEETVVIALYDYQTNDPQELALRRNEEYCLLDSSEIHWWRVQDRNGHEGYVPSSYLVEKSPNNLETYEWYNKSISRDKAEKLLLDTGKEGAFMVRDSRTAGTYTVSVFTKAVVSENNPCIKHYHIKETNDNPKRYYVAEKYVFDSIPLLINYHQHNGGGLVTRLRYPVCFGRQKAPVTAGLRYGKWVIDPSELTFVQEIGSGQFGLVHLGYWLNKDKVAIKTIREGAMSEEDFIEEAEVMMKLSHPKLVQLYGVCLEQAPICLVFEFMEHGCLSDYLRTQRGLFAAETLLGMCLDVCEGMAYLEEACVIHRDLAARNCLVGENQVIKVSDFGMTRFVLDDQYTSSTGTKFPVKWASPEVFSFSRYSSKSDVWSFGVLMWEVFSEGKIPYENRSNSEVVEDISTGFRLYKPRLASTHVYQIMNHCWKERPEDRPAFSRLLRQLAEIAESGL
In short: (§1)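 Single-point screen: compound 5 μM, ATP at Km per kinase, 30 min pre-incubation. Readout by mobility shift (Caliper LabChip), ADP detection or TR-fluorescence. Reported as % inhibition or IC50.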

RIPK3 = molecular target: T2, RIPK3 (Homo sapiens, UniProt Q9Y572); details: ATP at Km; 30-minute pre-incubation; read-out: kinase inhibition in terms of IC50, RIPK3
T2 construct: purchased Nanosyn
In short: as §1

RIPK2 = molecular target: T3, RIPK2 (Homo sapiens, UniProt O43353); details: ATP at Km; 30-minute pre-incubation; read-out: kinase inhibition in terms of IC50, RIPK2
T3 construct: purchased Nanosyn
In short: as §1

RIPK1 = molecular target: T4, RIPK1 (Homo sapiens, UniProt Q13546); details: ATP at Km; 30-minute pre-incubation; read-out: kinase inhibition in terms of IC50, RIPK1
T4 construct: purchased Nanosyn
T4 sequence (Q13546 1-671): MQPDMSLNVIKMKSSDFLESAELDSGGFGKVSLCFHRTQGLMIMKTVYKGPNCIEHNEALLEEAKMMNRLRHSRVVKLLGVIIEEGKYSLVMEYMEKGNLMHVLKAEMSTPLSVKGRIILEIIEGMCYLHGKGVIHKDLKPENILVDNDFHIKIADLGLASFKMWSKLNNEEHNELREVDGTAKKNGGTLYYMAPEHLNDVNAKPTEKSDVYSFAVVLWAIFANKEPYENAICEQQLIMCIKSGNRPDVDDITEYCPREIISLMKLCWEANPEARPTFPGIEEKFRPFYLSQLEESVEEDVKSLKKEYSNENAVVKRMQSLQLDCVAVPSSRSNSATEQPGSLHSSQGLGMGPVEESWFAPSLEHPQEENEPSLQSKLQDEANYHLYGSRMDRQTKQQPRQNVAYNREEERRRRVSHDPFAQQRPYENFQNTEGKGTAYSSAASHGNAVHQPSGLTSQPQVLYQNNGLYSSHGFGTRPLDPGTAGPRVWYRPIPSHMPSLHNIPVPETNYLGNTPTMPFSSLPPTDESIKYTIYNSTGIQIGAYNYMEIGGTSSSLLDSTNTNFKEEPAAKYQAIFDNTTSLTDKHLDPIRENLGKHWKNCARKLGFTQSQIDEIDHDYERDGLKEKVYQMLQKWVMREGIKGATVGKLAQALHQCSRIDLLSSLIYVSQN
In short: as §1

TYRO3 = molecular target: T5, TYRO3 (Homo sapiens, UniProt Q06418); details: ATP at Km; 30-minute pre-incubation; read-out: kinase inhibition in terms of IC50, TYRO3
T5 construct: purchased Nanosyn
T5 sequence (Q06418 41-890): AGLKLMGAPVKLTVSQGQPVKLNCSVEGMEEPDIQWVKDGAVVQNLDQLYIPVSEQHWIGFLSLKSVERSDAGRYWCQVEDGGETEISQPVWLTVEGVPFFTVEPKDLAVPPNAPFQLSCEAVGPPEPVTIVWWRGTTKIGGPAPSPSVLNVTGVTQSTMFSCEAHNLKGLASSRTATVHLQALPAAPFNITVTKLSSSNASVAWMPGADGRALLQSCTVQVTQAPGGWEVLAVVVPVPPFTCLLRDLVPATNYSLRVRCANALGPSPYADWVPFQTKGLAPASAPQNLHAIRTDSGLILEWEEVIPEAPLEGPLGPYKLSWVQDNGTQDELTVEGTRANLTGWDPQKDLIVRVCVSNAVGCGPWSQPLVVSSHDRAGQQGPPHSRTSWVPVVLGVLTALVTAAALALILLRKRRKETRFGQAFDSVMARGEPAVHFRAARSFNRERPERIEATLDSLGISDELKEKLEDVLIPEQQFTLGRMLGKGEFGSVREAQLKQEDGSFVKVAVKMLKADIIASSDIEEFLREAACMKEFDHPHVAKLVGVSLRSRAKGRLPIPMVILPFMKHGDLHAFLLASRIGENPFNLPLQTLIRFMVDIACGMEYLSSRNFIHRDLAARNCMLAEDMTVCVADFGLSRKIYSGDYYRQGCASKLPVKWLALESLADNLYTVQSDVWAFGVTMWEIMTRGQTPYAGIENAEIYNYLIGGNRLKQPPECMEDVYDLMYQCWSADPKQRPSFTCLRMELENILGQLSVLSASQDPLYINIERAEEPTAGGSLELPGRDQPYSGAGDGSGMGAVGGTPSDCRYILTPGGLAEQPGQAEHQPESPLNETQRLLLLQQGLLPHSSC
In short: as §1

TYK2 = molecular target: T6, TYK2 (Homo sapiens, UniProt P29597); details: ATP at Km; 30-minute pre-incubation; read-out: kinase inhibition in terms of IC50, TYK2
T6 construct: purchased Nanosyn
In short: as §1

T6 sequence (P29597 whole entry): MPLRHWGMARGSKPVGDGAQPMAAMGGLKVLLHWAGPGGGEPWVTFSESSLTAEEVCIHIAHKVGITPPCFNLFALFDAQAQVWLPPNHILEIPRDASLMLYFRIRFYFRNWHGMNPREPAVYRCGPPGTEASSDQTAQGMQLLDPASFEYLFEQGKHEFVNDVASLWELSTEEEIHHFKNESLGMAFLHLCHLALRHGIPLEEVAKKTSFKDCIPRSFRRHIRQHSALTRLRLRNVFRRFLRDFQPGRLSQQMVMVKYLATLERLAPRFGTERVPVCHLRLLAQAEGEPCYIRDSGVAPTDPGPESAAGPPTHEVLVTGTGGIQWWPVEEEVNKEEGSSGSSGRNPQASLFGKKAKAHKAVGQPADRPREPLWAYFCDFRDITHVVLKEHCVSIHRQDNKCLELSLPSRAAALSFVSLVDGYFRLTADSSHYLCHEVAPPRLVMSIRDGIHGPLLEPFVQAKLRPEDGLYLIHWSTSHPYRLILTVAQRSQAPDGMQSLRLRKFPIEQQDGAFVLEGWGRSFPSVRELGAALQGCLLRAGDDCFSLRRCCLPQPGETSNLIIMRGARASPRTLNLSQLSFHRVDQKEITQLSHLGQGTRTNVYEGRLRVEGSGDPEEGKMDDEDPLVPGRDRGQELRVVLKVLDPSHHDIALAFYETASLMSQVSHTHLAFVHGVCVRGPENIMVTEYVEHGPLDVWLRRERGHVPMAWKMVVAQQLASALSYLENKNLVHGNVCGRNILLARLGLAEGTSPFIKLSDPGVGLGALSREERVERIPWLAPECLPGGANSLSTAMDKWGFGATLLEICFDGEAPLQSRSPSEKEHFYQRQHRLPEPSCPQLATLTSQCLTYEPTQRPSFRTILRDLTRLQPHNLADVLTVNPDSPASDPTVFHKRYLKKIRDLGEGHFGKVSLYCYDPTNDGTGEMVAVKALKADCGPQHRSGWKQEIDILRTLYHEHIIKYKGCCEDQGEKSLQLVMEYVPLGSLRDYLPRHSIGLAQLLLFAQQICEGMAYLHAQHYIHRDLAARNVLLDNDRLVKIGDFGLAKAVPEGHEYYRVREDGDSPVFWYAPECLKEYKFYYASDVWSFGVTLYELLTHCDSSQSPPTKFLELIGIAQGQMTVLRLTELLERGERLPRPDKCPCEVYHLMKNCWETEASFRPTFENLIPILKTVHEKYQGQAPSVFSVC
T3 sequence (O43353 whole entry): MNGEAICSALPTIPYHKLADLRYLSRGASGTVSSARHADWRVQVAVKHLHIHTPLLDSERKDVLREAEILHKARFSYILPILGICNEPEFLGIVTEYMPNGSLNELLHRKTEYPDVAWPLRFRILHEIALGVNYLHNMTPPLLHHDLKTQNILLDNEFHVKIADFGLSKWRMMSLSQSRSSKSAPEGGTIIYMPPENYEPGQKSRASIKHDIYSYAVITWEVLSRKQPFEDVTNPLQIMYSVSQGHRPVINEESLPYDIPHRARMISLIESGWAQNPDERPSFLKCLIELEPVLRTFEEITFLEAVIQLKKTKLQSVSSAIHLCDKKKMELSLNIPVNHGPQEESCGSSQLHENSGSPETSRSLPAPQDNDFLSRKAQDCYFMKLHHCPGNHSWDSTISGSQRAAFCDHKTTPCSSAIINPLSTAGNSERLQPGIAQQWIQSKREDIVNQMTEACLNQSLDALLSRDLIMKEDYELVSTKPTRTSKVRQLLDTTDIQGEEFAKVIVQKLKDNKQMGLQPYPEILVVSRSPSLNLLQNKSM
T2 sequence (Q9Y572 whole entry): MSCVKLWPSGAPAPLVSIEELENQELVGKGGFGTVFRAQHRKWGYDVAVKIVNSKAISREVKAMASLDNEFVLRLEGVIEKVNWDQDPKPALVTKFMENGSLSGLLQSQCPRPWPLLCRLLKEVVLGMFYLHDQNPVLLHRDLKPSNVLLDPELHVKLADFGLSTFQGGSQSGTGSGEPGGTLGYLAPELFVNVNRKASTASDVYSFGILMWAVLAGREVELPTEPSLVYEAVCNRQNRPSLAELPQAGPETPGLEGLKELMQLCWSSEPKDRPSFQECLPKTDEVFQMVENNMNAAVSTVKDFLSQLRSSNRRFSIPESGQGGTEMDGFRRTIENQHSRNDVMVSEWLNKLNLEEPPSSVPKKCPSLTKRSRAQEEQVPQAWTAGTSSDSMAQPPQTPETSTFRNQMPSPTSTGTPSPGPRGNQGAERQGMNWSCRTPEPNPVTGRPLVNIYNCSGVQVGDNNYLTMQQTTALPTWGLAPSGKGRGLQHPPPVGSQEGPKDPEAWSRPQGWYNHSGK

Compound | IC50 (ITK) | IC50 (RIPK3) | IC50 (RIPK2) | IC50 (RIPK1) | IC50 (TYRO3) | IC50 (TYK2)
COc1cc2nccc(Oc3ccc(NC(=O)c4cc(S(C)(=O)=O)n(-c5ccc(F)cc5)n4)c(F)c3)c2cc1OC [Ex71, N-(4-((6,7-dimethoxyquinolin-4-yl)oxy)-2-fluorophenyl)-1-(4-fluorophenyl)-5-(methylsulfonyl)-1H-pyrazole-3-carboxamide] | ≥ 10 µM | 1 to 10 µM | 500 to 1000 nM | ≥ 10 µM | < 500 nM | ≥ 10 µM
COc1cc2nccc(Oc3ccc(NC(=O)c4cc(S(C)(=O)=O)n(-c5ccc(F)cc5)n4)cc3)c2cc1OC [Ex72, N-(4-((6,7-dimethoxyquinolin-4-yl)oxy)phenyl)-1-(4-fluorophenyl)-5-(methylsulfonyl)-1H-pyrazole-3-carboxamide] |  |  |  |  |  | 1 to 10 µM
COc1cc2nccc(Oc3ccc(NC(=O)c4cc(S(C)(=O)=O)n(-c5ccc(F)cc5)n4)cc3F)c2cc1OC [Ex73, N-(4-((6,7-dimethoxyquinolin-4-yl)oxy)-3-fluorophenyl)-1-(4-fluorophenyl)-5-(methylsulfonyl)-1H-pyrazole-3-carboxamide] | 1 to 10 µM |  |  |  | 1000 to 10000 nM | 

— patent US20240400577A1, “MODULATORS OF PROTEIN KINASES” (VIBLIOME THERAPEUTICS, LLC, priority 2021, published 2024)
